pIC50: −log10 of the molar value.
Experiments:
[1] = molecular target: T1, hERG channel (Homo sapiens, UniProt Q12809); assay: MK-499 Filter Binding Assay; settings: [35S]MK-0499 radioligand competition, membranes of HEK293 cells expressing hERG, read-out: MK499 IC50; for IC50 at 90 min: human, pH 7.4, probe [35S]MK-0499 radioligand
T1 construct: expressed in transfected cells; host or cells: HEK293, stably transfected; membranes
Description: MK-499 Filter Binding Assay
This assay is used to evaluate the potential of a compound to cause drug-induced log QT syndrome.
Drug cardiac arrhythmia is an important safety concern for pharmaceutical development and health regulatory authorities. Blockade of heterologously-expressed human ether-à-go-go gene (hERG) channel prolongs the duration of the cardiac action potential leading to a long QT interval that can lead to sudden death (De Ponti, F.; et at Drug Safety 2002, 25, pp. 263-286). It is important to have compounds devoid of hERG channel activity as measured by an in vitro assay. Affinity of compounds for the hERG channel was evaluated in radioligand competition experiments using HEK293 cells that were stably transfected with the hERG channel and radiolabeled ligand, MK-499 a potent antiarrhythmic. This assay correlates well with QT prolongation in vivo (Jamieson, C.; et al., J. Med. Chem. 2006, 49, pp. 5029-5046).
25 μL Target membranes (in assay buffer: 10 mM HEPES/NaOH, pH 7.4, 70 mM NaCl, 60 mM KCl, 2 mM MgCl2, 1 mM CaCl2) purified from a HEK293 cell line expressing the human Ether-à-go-go Related Gene (hERG) ion channel, 1 μL test compound in 10 mM DMSO and 25 μL (6,000 cpm/well; in assay buffer) [35S]MK-0499 radioligand (Merck/Perkin Elmer) are added to the assay plate (Axygen; 384 Deep well “Diamond Plate”, clear). After incubation of the binding reaction at room temperature (RT) for 90 min 50 μL of the assay were transferred to a MultiscreenHTS 384 FC filter plate (Millipore), which has been pre-wetted with 20 μL 0.01% PEI/0.01% Triton X-100 for at least 30 min at RT. Then, 30 μL it wash buffer (10 mM HEPES/NaOH, pH 7.4, 130 mM NaCl, 2 mM MgCl2, 1 mM CaCl2) equilibrated to RT were added to each well of the assay plate and subsequently transferred to the filter plate. The assay mixture was aspirated through the filter plate using a Biotek ELx405™ washer. The filter plate was washed twice with 100 μl cold wash buffer per wash and well and then dried in a drying oven for at least 75 min at 55° C. Afterwards, the bottom of each filter plate was heat sealed with a solid foil seal, then 10 μL of Microscint™ 0 (Perkin Elmer) were added to each well of the filter plate and finally, the top of each filter plate was sealed with a clear seal. The plates were stored for at least 20 min in a MicroBeta2 reader (Perkin Elmer) before they are counted (60 sec/well).
(§1) Table 4 summarizes the selectivity of the inventive compounds in the CYP3A4 assay and the ability of the inventive compound to inhibit hERG.

[2] = molecular target: CYP3A4 (column heading prints CYP2D6; method and table sentence say CYP3A4) (Homo sapiens, UniProt P08684); assay: CYP MUX (3A4) RI; format: in vitro ADME; settings: pH 7.4, probe testosterone (75 µM); human liver microsomes; method describes testosterone as substrate for 3A4
Sequence of CYP3A4 (column heading prints CYP2D6; method and table sentence say CYP3A4) (P08684 2-503): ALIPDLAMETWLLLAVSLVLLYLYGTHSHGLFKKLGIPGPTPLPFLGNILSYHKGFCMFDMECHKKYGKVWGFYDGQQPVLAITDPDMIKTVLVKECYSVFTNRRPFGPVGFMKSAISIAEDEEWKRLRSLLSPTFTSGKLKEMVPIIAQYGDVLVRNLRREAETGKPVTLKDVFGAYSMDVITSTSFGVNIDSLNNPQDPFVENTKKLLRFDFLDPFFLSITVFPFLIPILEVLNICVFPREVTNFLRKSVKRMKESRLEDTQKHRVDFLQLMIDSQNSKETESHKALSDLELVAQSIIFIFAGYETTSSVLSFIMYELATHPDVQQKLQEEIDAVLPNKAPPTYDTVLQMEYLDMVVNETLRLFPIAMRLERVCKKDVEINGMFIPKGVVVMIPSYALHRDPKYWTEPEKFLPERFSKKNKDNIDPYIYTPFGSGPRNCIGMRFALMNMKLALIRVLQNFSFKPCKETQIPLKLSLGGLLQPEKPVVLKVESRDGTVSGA
Description: This assay measures inhibition of CYP3A4 by a compound. Cytochromes P450 (CYPs) constitute a superfamily of heme-containing enzymes that recognize and metabolize a large number structurally diverse xenobiotics in the human body. CYP3A4 constitutes the largest portion of CYP enzymes in the liver that accounts for the metabolism of almost 50% of all drugs. This assay is used to evaluate the potential of a compound for developing DDIs. (Clarke, S. E.; Jones B. C. Drug-Drug Interactions, New York: Marcel Dekker; 2002. pp. 53-88).
Compound dilutions and assay-ready plates were prepared on a TTP Labtech Mosquito® HTS. Assay conduction was fully automated on a customized Screening Platform from Caliper (now PerkinElmer) containing a Mitsubishi robotic plate handler, Liconic incubators, a Caliper Zephyr® liquid handling workstation equipped with temperature-controlled deck positions, a Biotek MultiFlo™ dispenser and an Agilent PlateLoc heat sealer. Assay plates were Corning Costar® 384 well PP plates. High throughput mass spectrometric readout was performed on a RapidFire® 300 system coupled to an AB Sciex API 4000™ triple quadrupole device. CYP isoform 3A4 was incubated in a separate reaction of 50 μL final volume. 25 μL of HLM (human liver microsomes, BD UltraPool™ 150, 0.25 mg/mL final concentration) and the respective substrate, testosterone (75 μM) for 3A4, in potassium phosphate buffer (100 mM, pH=7.4) were added to 250 nL of stamped compound solution (10 mM in DMSO). The reactions were started upon addition of 25 μL of a co-factor solution containing magnesium chloride (3.3 mM), glucose-6-phosphate (3.3 mM), glucose-6-phosphate dehydrogenase (1.4 units) and NADP (1 mM) in potassium phosphate buffer (100 mM, pH=7.4) and incubated on deck at 37° C. for 10 min. 8 μL of each reaction were transferred to the same readout plated filled with 48 μL of stop solution containing internal standards (concentration in final readout plate), 6-hydroxytestosterone-D7 (0.5 μM), 4′-hydroxydiclofenac-D4′-(0.2 μM), and dextrorphan-D3 (0.01 μM), in acetonitrile with 0.5% formic acid. After heat sealing, plates were stored at −20° C. for at least 30 min, centrifuged and subjected directly to RapidFire®/MS analysis.
as §1

[3] = molecular target: T2, PAR-1 receptor (Homo sapiens, UniProt P25116); assay: PAR-1 FLIPR Assay; format: cell-based; settings: HEK 293 cells, calcium signal after PAR-1 selective receptor-activating peptide at EC80
T2 construct: endogenous in cells; host or cells: HEK 293
T2 sequence (P25116 22-425): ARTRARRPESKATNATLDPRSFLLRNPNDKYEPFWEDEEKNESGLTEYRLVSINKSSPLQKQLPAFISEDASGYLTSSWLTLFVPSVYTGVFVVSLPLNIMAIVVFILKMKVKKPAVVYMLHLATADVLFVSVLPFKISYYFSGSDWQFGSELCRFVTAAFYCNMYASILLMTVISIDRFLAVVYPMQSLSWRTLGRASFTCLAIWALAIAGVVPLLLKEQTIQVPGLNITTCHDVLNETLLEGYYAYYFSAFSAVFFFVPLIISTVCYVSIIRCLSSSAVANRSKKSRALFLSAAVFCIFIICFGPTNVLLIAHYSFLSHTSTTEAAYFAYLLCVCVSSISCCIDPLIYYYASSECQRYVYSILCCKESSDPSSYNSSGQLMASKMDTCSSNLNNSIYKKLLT
Protocol: This assay measures the potency of the inventive compounds as PAR-1 receptor antagonists.
Frozen HEK 293 Cells were plated in 384-well PDL coated plates at 12000 cells/well in 50 uL of DMEM media containing 10% FBS, pen/strep/L-Glutamine and non-essential amino acids, incubated overnight at 37° C./5% CO2. Media was then removed from the cells, incubated with 33 uL of Calcium-5 dye in assay buffer (Hank's buffer containing 20 mM HEPES, 0.04% Chaps and 2.5 mM Probenecid) for 60 minutes at 37° C. 2 uL of varying concentrations of compound in 40% DMSO in assay buffer (final DMSO concentration is 2.3%) were then added to the cells and incubated at 25° C. for 30 minutes. The plates were added to the FLIPR Tetra®, the device added 5 uL of PAR-1 selective receptor-activating peptide (sequence Ala-parafluoroPhe-Arg-Cha-Cit-Try-Nh2, prepared in water) at a concentration equal to the effective concentration that achieved 80% activation of signaling on the day of the experiment. The range of peptide was from 1.5-3 μM. The final volume was 40 uL/well, with 2% DMSO. The FLIPR was read at an excitation wavelength of 480 nm and an emission wavelength of 535 nm, and performed 60 scans over a 1-2 min reading time. The data were analyzed by taking the peak signal over a portion of the range of the 60 scans and dividing this signal by the minimum signal for that same range. The data were expressed as percent inhibition of the maximum divided by the minimum signal achieved at 80% activation produced by the PAR1 activating peptide on the test day. The compounds of Examples 1-9 were tested in the assay described above and the data collected for these compounds is provided.

T1 sequence (Q12809 whole entry): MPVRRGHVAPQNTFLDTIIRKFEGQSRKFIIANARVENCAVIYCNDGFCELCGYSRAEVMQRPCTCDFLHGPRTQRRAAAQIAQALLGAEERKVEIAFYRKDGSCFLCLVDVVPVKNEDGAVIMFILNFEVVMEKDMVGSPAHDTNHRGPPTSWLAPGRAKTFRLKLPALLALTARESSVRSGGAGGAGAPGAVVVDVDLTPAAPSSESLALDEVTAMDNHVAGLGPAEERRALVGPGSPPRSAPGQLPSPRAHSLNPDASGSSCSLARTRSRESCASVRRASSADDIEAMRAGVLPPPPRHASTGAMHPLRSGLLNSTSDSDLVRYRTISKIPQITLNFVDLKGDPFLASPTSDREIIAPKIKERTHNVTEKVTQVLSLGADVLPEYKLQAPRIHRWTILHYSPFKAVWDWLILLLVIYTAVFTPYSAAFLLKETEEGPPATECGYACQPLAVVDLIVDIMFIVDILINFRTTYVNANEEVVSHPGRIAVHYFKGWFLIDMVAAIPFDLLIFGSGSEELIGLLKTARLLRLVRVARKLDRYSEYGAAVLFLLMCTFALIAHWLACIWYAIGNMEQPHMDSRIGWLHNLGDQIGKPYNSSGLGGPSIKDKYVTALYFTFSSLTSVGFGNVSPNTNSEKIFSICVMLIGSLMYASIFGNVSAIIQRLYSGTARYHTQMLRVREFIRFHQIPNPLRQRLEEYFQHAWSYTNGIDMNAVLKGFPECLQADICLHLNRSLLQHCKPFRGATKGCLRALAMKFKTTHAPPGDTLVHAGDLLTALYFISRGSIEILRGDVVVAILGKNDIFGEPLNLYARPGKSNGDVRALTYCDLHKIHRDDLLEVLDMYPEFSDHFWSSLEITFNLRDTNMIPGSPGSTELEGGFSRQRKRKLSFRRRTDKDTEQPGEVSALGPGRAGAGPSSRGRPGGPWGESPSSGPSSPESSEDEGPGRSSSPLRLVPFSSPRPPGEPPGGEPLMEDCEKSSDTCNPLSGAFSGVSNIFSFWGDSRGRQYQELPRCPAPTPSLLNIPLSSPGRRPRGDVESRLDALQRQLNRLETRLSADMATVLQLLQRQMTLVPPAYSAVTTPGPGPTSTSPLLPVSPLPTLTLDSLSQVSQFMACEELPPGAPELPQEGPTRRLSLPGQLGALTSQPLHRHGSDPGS

| Compound | IC50 at 90 min [1] | IC50 at 10 min [2] | pIC50 [3] | pIC50 [1] |
| --- | --- | --- | --- | --- |
| C[C@H]1OC(=O)[C@]2(O)CC(F)(F)[C@@H](C)[C@H](/C=C/c3ccc(-c4cccnc4C#N)cn3)[C@H]12 [Example 1, 6′-((E)-2-((3R,3aR,4R,5S,7aS)-6,6-difluoro-7a-hydroxy-3,5-dimethyl-1-oxooctahydroisobenzofuran-4-yl)vinyl)-[3,3′-bipyridine]-2-carbonitrile] | ≥ 60 µM | ≥ 50 µM | 8.23 |  |
| C[C@H]1OC(=O)[C@]2(O)CC(F)(F)[C@@H](C)[C@H](/C=C/c3ccc(-c4cccnc4-c4ccccc4)cn3)[C@H]12 [Example 2, (3R,3aR,4R,5S,7aS)-6,6-difluoro-7a-hydroxy-3,5-dimethyl-4-((E)-2-(2′-phenyl-[3,3′-bipyridin]-6-yl)vinyl)hexahydroisobenzofuran-1(3H)-one] |  | 28.5 µM | 8.05 | 4.40 |
| COc1ncccc1-c1ccc(/C=C/[C@@H]2[C@@H]3[C@@H](C)OC(=O)[C@]3(O)CC(F)(F)[C@H]2C)nc1 [Example 3, (3R,3aR,4R,5S,7aS)-6,6-difluoro-7a-hydroxy-4-((E)-2-(2′-methoxy-[3,3′-bipyridin]-6-yl)vinyl)-3,5-dimethylhexahydroisobenzofuran-1(3H)-one] | ≥ 60 µM | ≥ 50 µM | 8.27 |  |
| C[C@H]1OC(=O)[C@]2(O)CC(F)(F)[C@@H](C)[C@H](/C=C/c3ccc(-c4cccnc4Cl)cn3)[C@H]12 [Example 4, (3R,3aR,4R,5S,7aS)-4-((E)-2-(2′-chloro-[3,3′-bipyridin]-6-yl)vinyl)-6,6-difluoro-7a-hydroxy-3,5-dimethylhexahydroisobenzofuran-1(3H)-one] |  | ≥ 50 µM | 8.11 | 4.73 |
| C[C@H]1OC(=O)[C@]2(O)CC(F)(F)[C@@H](C)[C@H](/C=C/c3ccc(-c4cccnc4F)cn3)[C@H]12 [Example 5] | ≥ 60 µM | ≥ 50 µM | 7.79 |  |
| C[C@H]1OC(=O)[C@]2(O)CC(F)(F)[C@@H](C)[C@H](/C=C/c3ccc(-c4cccnc4C4CC4)cn3)[C@H]12 [Example 6, (3R,3aR,4R,5S,7aS)-4-((E)-2-(2′-cyclopropyl-[3,3′-bipyridin]-6-yl)vinyl)-6,6-difluoro-7a-hydroxy-3,5-dimethylhexahydroisobenzofuran-1(3H)-one] | ≥ 60 µM | ≥ 50 µM | 7.98 |  |
| Cc1ccc(-c2ncccc2-c2ccc(/C=C/[C@@H]3[C@@H]4[C@@H](C)OC(=O)[C@]4(O)CC(F)(F)[C@H]3C)nc2)s1 [Example 7, (3R,3aR,4R,5S,7aS)-6,6-difluoro-7a-hydroxy-3,5-dimethyl-4-((E)-2-(2′-(5-methylthiophen-2-yl)-[3,3′-bipyridin]-6-yl)vinyl)hexahydroisobenzofuran-1(3H)-one] |  | ≥ 50 µM | 7.82 | 4.68 |
| C[C@H]1OC(=O)[C@]2(O)CC(F)(F)[C@@H](C)[C@H](/C=C/c3ccc(-c4cccnc4-c4cncn4C)cn3)[C@H]12 [Example 8, (3R,3aR,4R,5S,7aS)-6,6-difIuoro-7a-hydroxy-3,5-dimethyl-4-((E)-2-(2′-(l-methyl-1H-imidazol-5-yl)-[3,3′-bipyridin]-6-yl)vinyl)hexahydroisobenzofuran-1(3H)-one] | ≥ 60 µM | ≥ 50 µM |  |  |
| C[C@H]1OC(=O)[C@]2(O)CC(F)(F)[C@@H](C)[C@H](/C=C/c3ccc(-c4cccnc4N4CC(F)(F)C4)cn3)[C@H]12 [Example 9, (3R,3aR,4R,5S,7aS)-4-((E)-2-(2′-(3,3-difluoroazetidin-1-yl)-[3,3′-bipyridin]-6-yl)vinyl)-6,6-difluoro-7a-hydroxy-3,5-dimethylhexahydroisobenzofuran-1(3H)-one] | ≥ 60 µM | ≥ 50 µM | 7.03 |  |

Source: US9808473B2, “Preparation and use of 3-pyridyl substituted-6,6-difluoro bicyclic himbacine derivatives as par-1 receptor antagonists” (Merck Sharp & Dohme Corp., priority 2013, dated 2017)
